# From patent US20230146395A1, “Substituted Pyrimidines and Uses Thereof” (Verge Analytics, Inc., priority 2020, published 2023)
# Structures can show the parent of a compound that is named as a salt.
# Assays:
# Type in all cases: biochemical
# [1] = molecular target: T1, PI3Kα (Homo sapiens, UniProt P42336); experiment: Inhibition of PI3K isoforms: PI3Kα (microfluidic electrophoresis kinase assay, PIP2/PS substrate); conditions: p110α/p85α, ATP 90 μM; read-out: PI3Ka IC50
# T1 construct: Full-length N-terminal; FLAG (N); host or cells: SF9 cells (baculovirus)
# T1 sequence (P42336 whole entry, canonical isoform): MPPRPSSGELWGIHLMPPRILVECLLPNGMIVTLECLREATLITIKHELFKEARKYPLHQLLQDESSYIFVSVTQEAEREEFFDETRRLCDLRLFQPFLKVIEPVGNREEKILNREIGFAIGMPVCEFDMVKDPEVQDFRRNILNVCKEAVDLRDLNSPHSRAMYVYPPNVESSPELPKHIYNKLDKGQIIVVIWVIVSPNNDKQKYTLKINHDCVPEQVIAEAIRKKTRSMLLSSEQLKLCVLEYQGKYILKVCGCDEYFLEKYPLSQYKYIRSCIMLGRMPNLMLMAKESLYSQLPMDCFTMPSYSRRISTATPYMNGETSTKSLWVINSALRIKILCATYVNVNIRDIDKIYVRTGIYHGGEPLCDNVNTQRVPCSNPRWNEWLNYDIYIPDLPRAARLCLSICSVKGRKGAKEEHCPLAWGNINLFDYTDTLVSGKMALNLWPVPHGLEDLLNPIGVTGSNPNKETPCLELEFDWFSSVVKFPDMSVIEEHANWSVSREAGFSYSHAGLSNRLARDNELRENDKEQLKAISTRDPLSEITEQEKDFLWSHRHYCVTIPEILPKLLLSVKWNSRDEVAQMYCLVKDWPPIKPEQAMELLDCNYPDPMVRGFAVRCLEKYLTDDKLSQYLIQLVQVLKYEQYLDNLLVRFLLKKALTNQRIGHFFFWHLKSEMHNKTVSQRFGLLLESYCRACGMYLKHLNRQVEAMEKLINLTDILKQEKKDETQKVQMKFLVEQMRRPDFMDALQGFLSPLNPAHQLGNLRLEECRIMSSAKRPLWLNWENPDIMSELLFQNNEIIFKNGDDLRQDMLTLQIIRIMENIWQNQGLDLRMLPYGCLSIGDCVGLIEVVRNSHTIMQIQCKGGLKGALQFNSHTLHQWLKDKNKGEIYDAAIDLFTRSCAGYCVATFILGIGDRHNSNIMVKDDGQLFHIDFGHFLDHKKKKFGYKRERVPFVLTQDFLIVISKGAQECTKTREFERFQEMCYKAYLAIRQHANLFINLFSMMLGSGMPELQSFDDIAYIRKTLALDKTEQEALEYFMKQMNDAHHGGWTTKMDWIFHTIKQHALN
# T1 sequence (P27986 whole entry partner, canonical isoform): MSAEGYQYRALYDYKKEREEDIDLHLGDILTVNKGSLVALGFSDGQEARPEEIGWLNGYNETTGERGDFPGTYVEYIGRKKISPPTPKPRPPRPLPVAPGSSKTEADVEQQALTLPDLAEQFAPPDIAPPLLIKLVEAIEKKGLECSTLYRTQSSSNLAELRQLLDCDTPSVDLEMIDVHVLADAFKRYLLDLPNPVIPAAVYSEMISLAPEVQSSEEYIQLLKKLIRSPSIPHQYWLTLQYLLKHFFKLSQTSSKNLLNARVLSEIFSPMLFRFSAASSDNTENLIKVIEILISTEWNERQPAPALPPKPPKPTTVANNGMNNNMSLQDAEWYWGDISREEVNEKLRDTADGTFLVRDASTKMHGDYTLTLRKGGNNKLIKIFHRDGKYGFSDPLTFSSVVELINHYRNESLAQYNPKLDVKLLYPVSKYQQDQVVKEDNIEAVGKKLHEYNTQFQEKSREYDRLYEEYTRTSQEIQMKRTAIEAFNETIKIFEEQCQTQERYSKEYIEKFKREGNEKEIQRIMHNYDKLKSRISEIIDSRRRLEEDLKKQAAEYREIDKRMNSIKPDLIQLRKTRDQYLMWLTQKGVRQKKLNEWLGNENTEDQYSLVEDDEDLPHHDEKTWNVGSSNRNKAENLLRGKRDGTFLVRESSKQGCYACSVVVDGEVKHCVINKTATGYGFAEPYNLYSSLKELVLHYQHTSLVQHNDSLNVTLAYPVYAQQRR
# Method: (§1) The kinase substrate was prepared by mixing and sonicating fluorescently-labeled phosphatidylinositol 4,5-phosphate (PIP2) with phospho-L-serine (PS) at 1:20 ratio in 50 mM HEPES buffer pH7.5.
# The kinase reactions were assembled in 384-well plates (Greiner) in a total volume of […] as follows. The kinase proteins were pre-diluted in an assay buffer comprising 50 mM HEPES, pH 7.5, 0.012% CHAPS, 1 mM DTT, 10 mM Na3VaO4, 10 mM 3-GP, 3 mM MgCl2, and 40 mM NaCl2, and dispensed into a 384-well plate (10 μL per well). Test compounds were serially pre-diluted in DMSO and added to the protein samples by acoustic dispensing (Labcyte Echo). The concentration of DMSO was equalized to 1% in all samples. All test compounds were tested at 12 concentrations. The control samples (0%-inhibition in the absence of inhibitor, DMSO only) and 100%-inhibition (in the absence of enzyme) were assembled in replicates of four and were used to calculate %-inhibition in the presence of test compounds. The reactions were initiated by addition of 10 μL of the PIP2/PS substrate supplemented with ATP. The final concentration of enzymes was 0.5 nM (PI3Kα), 1 nM (PI3Kβ), 10 nM (PI3Kγ), and 0.25 nM (PI3Kδ). The final concentration of ATP was 90 μM (PI3Kα), 60 μM (PI3Kβ), 100 μM (PI3Kγ), and 90 μM (PI3Kδ). The final concentration of PIP2/PS substrate was 1 μM (PIP2). The kinase reactions were allowed to proceed for 3 h at room temperature. Following incubation, the reactions were quenched by addition of 50 μL of termination buffer (100 mM HEPES, pH 7.5, 0.01% Triton X-100, 20 mM EDTA). Terminated plates were analyzed on a microfluidic electrophoresis instrument (Caliper LabChip® 3000, Caliper Life Sciences/Perkin Elmer). The change in the relative fluorescence intensity of the PI(4,5)P substrate and PI(3,4,5)P product peaks was measured. The activity in each test sample was determined as the product to sum ratio (PSR): P/(S+P), where P is the peak height of the product, and S is the peak height of the substrate. Percent inhibition (Pinh) was determined using the following equation:
# Pinh=(PSR0% inh−PSRcompound)/(PSR0% inh−PSR100% inh)*100
# in which PSRcompound is the product/sum ratio in the presence of compound, PSR0% inh is the product/sum ratio in the absence of compound, and the PSR100% inh is the product/sum ratio in the absence of the enzyme.
# [2] = molecular target: T2, PI3Kβ (Homo sapiens, UniProt P42338); experiment: Inhibition of PI3K isoforms: PI3Kβ (microfluidic electrophoresis kinase assay, PIP2/PS substrate); conditions: p110β/p85α, ATP 60 μM; read-out: PI3Kb IC50
# T2 construct: Full-length N-terminal; GST (N); host or cells: SF9 cells (baculovirus)
# T2 sequence (P42338 whole entry, canonical isoform): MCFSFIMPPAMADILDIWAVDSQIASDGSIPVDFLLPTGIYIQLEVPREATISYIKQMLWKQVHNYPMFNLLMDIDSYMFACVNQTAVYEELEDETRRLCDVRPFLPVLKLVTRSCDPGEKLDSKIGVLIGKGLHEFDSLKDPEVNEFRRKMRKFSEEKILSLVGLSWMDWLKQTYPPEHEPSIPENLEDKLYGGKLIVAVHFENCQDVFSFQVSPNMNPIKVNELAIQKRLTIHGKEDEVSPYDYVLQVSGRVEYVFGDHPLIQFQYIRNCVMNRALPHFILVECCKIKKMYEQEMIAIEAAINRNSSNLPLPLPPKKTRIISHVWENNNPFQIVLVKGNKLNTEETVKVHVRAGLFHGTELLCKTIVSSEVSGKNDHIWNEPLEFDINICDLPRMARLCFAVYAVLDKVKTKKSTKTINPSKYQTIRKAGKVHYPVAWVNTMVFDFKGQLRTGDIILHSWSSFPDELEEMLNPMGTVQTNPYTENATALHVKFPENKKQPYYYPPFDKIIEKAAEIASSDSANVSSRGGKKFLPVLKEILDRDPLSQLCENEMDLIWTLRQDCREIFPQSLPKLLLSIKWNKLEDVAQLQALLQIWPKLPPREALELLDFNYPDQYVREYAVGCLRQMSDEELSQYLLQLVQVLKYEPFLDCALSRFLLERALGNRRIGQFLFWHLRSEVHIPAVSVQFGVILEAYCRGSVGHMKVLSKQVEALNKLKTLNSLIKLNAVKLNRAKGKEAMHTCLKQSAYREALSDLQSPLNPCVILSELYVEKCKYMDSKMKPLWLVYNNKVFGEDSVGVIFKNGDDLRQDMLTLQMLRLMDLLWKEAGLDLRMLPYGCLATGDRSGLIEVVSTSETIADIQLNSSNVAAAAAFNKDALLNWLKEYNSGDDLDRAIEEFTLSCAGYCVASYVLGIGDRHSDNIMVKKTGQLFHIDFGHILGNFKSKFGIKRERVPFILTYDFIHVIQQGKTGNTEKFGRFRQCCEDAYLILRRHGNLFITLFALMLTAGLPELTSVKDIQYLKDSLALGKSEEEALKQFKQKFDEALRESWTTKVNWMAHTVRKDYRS
# T2 sequence (P27986 whole entry partner, canonical isoform): as the sequence (P27986 whole entry partner, canonical isoform) above
# Method: as §1
# The kinase reactions were assembled in 384-well plates (Greiner) in a total volume of […] as follows. The kinase proteins were pre-diluted in an assay buffer comprising 50 mM HEPES, pH 7.5, 0.012% CHAPS, 1 mM DTT, 10 mM Na3VaO4, 10 mM 3-GP, 3 mM MgCl2, and 40 mM NaCl2, and dispensed into a 384-well plate (10 μL per well). Test compounds were serially pre-diluted in DMSO and added to the protein samples by acoustic dispensing (Labcyte Echo). The concentration of DMSO was equalized to 1% in all samples. All test compounds were tested at 12 concentrations. […] Terminated plates were analyzed on a microfluidic electrophoresis instrument (Caliper LabChip® 3000, Caliper Life Sciences/Perkin Elmer). The change in the relative fluorescence intensity of the PI(4,5)P substrate and PI(3,4,5)P product peaks was measured. The activity in each test sample was determined as the product to sum ratio (PSR): P/(S+P), where P is the peak height of the product, and S is the peak height of the substrate. Percent inhibition (Pinh) was determined using the following equation: […]
# [3] = molecular target: T3, PI3Kδ (Homo sapiens, UniProt O00329); experiment: Inhibition of PI3K isoforms: PI3Kδ (microfluidic electrophoresis kinase assay, PIP2/PS substrate); conditions: p110δ/p85α, ATP 90 μM; read-out: PI3Kd IC50
# T3 construct: Full-length N-terminal; GST (N); host or cells: SF9 cells (baculovirus)
# T3 sequence (O00329 whole entry, canonical isoform): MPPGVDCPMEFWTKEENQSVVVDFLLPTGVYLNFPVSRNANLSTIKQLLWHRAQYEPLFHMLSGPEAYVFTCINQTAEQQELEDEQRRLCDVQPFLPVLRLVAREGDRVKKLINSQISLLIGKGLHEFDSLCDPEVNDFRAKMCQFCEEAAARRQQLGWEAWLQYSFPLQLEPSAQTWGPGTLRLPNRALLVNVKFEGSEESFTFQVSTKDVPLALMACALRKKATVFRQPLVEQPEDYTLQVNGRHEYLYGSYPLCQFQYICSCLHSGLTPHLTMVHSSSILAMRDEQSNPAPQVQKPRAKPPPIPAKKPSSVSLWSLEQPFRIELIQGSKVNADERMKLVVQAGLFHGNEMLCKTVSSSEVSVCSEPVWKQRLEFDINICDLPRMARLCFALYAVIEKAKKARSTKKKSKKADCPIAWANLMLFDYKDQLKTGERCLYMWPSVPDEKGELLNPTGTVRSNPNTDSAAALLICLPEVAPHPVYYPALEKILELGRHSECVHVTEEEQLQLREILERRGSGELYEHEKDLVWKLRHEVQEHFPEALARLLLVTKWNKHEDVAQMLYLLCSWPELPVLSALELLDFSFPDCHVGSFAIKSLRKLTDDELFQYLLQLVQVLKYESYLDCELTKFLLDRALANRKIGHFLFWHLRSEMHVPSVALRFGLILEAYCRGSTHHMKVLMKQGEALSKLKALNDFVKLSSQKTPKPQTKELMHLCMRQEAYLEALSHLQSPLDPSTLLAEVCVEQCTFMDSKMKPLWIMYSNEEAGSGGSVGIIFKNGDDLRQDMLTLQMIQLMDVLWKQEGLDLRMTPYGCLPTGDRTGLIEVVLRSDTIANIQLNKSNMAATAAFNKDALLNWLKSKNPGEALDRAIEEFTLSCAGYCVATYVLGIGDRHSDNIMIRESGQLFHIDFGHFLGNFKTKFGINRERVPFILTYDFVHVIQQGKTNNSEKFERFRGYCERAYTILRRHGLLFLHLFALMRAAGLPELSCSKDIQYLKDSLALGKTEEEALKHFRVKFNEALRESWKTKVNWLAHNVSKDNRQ
# T3 sequence (P27986 whole entry partner, canonical isoform): as the sequence (P27986 whole entry partner, canonical isoform) above
# Method: The kinase substrate was prepared by mixing and sonicating fluorescently-labeled phosphatidylinositol 4,5-phosphate (PIP2) with phospho-L-[…]:20 ratio in 50 mM HEPES buffer pH7.5. The kinase reactions were assembled in 384-well plates (Greiner) in a total volume of […] as follows. The kinase proteins were pre-diluted in an assay buffer comprising 50 mM HEPES, pH 7.5, 0.012% CHAPS, 1 mM DTT, 10 mM Na3VaO4, 10 mM 3-GP, 3 mM MgCl2, and 40 mM NaCl2, and dispensed into a 384-well plate (10 μL per well). Test compounds were serially pre-diluted in DMSO and added to the protein samples by acoustic dispensing (Labcyte Echo). The concentration of DMSO was equalized to 1% in all samples. All test compounds were tested at 12 concentrations. The control samples (0%-inhibition in the absence of inhibitor, DMSO only) and 100%-inhibition (in the absence of enzyme) were assembled in replicates of four and were used to calculate %-inhibition in the presence of test compounds. The reactions were initiated by addition of 10 μL of the PIP2/PS substrate supplemented with ATP. The final concentration of enzymes was 0.5 nM (PI3Kα), 1 nM (PI3Kβ), 10 nM (PI3Kγ), and 0.25 nM (PI3Kδ). The final concentration of ATP was 90 μM (PI3Kα), 60 μM (PI3Kβ), 100 μM (PI3Kγ), and 90 μM (PI3Kδ). The final concentration of PIP2/PS substrate was 1 μM (PIP2). The kinase reactions were allowed to proceed for 3 h at room temperature. Following incubation, the reactions were quenched by addition of 50 μL of termination buffer (100 mM HEPES, pH 7.5, 0.01% Triton X-100, 20 mM EDTA). Terminated plates were analyzed on a microfluidic electrophoresis instrument (Caliper LabChip® 3000, Caliper Life Sciences/Perkin Elmer). The change in the relative fluorescence intensity of the PI(4,5)P substrate and PI(3,4,5)P product peaks was measured. The activity in each test sample was determined as the product to sum ratio (PSR): P/(S+P), where P is the peak height of the product, and S is the peak height of the substrate. Percent inhibition (Pinh) was determined using the following equation: Pinh=(PSR0% inh-PSRcompound)/(PSR0% inh-PSR100% inh)*100 in which PSRcompound is the product/sum ratio in the presence of compound, PSR0% inh is the product/sum ratio in the absence of compound, and the PSR100% inh is the product/sum ratio in the absence of the enzyme. […] (Pinh versus compound concentration) were fitted by a four-parameter sigmoid dose-response model using XLfit software (IDBS).
smiles,measurement,setting,value
"c1ccc(-c2cc(Nc3nc(N4CCOCC4)c4oc(-c5ccncc5)cc4n3)[nH]n2)cc1 [Compound 1, 4-morpholino-N-(3-phenyl-1H-pyrazol-5-yl)-6-(pyridin-4-yl)furo[3,2-d]pyrimidin-2-amine hydrochloride]",IC50,[1],6.78 µM
same,IC50,[2],> 10 µM
same,IC50,[3],2.71 µM
